Reference: PubChem BioAssay (NCI)
Values joined by “and” are separate entries in the source; they are usually repeats but may differ in a detail not shown here. Identical values can stand only once.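 Values below derive from 48-hour exposures of cells grown in 96-well plates, with endpoints linearly interpolated between the two concentrations bracketing the appropriate inhibition level. Here, GI50 denotes the concentration required for 50% inhibition of growth. At the TGI there is no net growth.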

Key:
Test in all cases: NCI tumour cell line growth inhibition, 48 h
SNB-75 CNS = system: SNB-75 CNS
PC-3 prostate = system: PC-3 prostate
A549 NSCLC = system: A549 NSCLC
NCI-H522 lung = system: NCI-H522 lung
UACC-62 melanoma = system: UACC-62 melanoma
SK-MEL-2 melanoma = system: SK-MEL-2 melanoma
KM12 colon = system: KM12 colon
NCI/ADR-RES ovarian = system: NCI/ADR-RES ovarian
CAKI-1 renal = system: CAKI-1 renal
SK-OV-3 ovarian = system: SK-OV-3 ovarian

Row | Compound | GI50 (SNB-75 CNS) [µM] | TGI (SNB-75 CNS) [µM] | GI50 (PC-3 prostate) [µM] | TGI (PC-3 prostate) [µM] | GI50 (A549 NSCLC) [µM] | TGI (A549 NSCLC) [µM] | GI50 (NCI-H522 lung) [µM] | TGI (NCI-H522 lung) [µM] | GI50 (UACC-62 melanoma) | TGI (UACC-62 melanoma) | GI50 (SK-MEL-2 melanoma) [µM] | TGI (SK-MEL-2 melanoma) [µM] | GI50 (KM12 colon) [µM] | TGI (KM12 colon) [µM] | GI50 (NCI/ADR-RES ovarian) [µM] | TGI (NCI/ADR-RES ovarian) [µM] | GI50 (CAKI-1 renal) [µM] | TGI (CAKI-1 renal) [µM] | TGI (SK-OV-3 ovarian) [µM] | GI50 (SK-OV-3 ovarian) [µM]
1 | O=C(Nc1ccc(-n2cc(-c3ccncc3)c(-c3ccc(O)c(Cl)c3)n2)cc1)Nc1cc(C(F)(F)F)cc(C(F)(F)F)c1 | 2.07 | 12.6 | 2.92 | 11.5 | 4.06 | 15.5 | 3.79 | 15 | 3.02 µM | 10.6 µM | 2.2 | 4.98 | 3.3 | 11.7 | 4.94 | 22.5 | 3.34 | 12.8 |  | 
2 | CC(C)(C)OC(=O)N[C@H]1CC(=O)c2ccccc2N(CC(=O)O)C1=O |  | > 100 |  |  |  | > 100 |  | > 100 |  | > 100 µM |  | > 100 |  | > 100 |  |  |  | > 100 | > 100 | 
3 | COC(=O)c1c(O)ccc2c1c1c(n2Cc2ccc(OC)cc2)C(=O)c2ccccc2C1 |  | > 100 |  | 59.5 |  | > 100 |  |  |  | > 100 µM |  | > 100 |  | > 100 |  | > 100 |  | 74.1 | > 100 | 
4 | COc1ccc(C(=CCC(C)C2CCC3[C@@H]4C(OC(C)=O)CC5CC(OC(C)=O)CC[C@]5(C)C4CC(OC(C)=O)[C@]23C)c2ccc(OC)cc2)cc1 (stereo not given in full) |  | > 100 |  | > 100 |  | > 100 |  | > 100 |  |  |  |  |  | > 100 |  | > 100 |  |  | > 100 | 
5 | Cc1ccc(S(=O)(=O)OCCN(CCOS(=O)(=O)c2ccc(C)cc2)c2ccc(C=O)cc2)cc1 |  |  |  | > 100 |  | > 100 |  | 34.1 |  | 39.5 µM |  | 40.1 |  | 53 |  | > 100 |  | 48.8 |  | 
6 | CN1CCCc2nc3ccccc3n2C1 |  | > 100 |  |  |  | > 100 |  | > 100 |  | > 100 µM |  | > 100 |  | > 100 |  |  |  | > 100 | > 100 | 
7 | COc1cc(C2c3cc4c(cc3[C@@H](Nc3ccc(F)cc3)C3COC[C@H]23)OCO4)cc(OC)c1O (stereo not given in full) |  | 17 |  | > 25 |  | 10.6 |  | > 25 |  |  |  |  |  | > 25 |  | > 25 |  |  | > 25 | 
8 | NCCCNc1nc2ccccc2c2c(=O)c3cc(Cl)ccc3sc12 | 1.4 | 2.79 | 1.69 | 3.23 |  |  | 1.66 | 3.14 | 1.67 µM | 3.16 µM | 1.99 | 3.69 |  |  |  |  | 1.49 | 2.86 | 3.48 | 1.58
9 | Cc1cc(-c2ccc(N=Nc3ccc4c(S(=O)(=O)O)cc(S(=O)(=O)O)c(N)c4c3O)c(C)c2)ccc1N=Nc1ccc2c(S(=O)(=O)O)cc(S(=O)(=O)O)c(N)c2c1O |  | > 100 |  |  |  | > 100 |  | > 100 |  | > 100 µM |  | > 100 |  | > 100 |  | > 100 |  |  | > 100 | 
10 | O=c1[nH]ncc2[nH]c3c(c12)CCc1ccccc1-3 |  | 76.1 |  | > 100 |  | > 100 |  | 57 |  |  |  | 57.7 |  | > 100 |  | > 100 |  | > 100 | > 100 | 
11 | CC1CC(c2ccccc2)=Nc2ccccc2S1 (stereo not given) |  | > 100 |  |  |  | > 100 |  | > 100 |  | > 100 µM |  | > 100 |  | > 100 |  |  |  | > 100 | > 100 | 
12 | Cn1c2c(c3c(=O)[nH]ncc31)Cc1ccccc1-2 |  | 34.9 |  | > 100 |  | > 100 |  | > 100 |  |  |  | 41.8 |  | 66.8 |  | > 100 |  | > 100 | > 100 | 
13 | COCOC1CCCC[C@@]1(OCCOCCO[C@@]1(c2ccccc2)CCCC[C@H]1OCOC)c1ccccc1 (stereo not given in full) |  | 84.3 |  |  |  | > 100 |  | > 100 |  | > 100 µM |  | > 100 |  | > 100 |  |  |  | > 100 | > 100 | 
14 | CC(=O)C1(C(=O)C(=[N+]=[N-])S(=O)(=O)c2ccccc2)CC1 |  | > 100 |  | > 100 |  | > 100 |  | > 100 |  | > 100 µM |  | > 100 |  | > 100 |  | > 100 |  |  |  | 
15 | CC(C)C(NCc1c2ccccc2[n+](C)c2ccccc12)C(=O)O (stereo not given) |  | 18 |  |  |  | 29.9 |  | 3.69 |  | 18.6 µM |  | 17 |  | 18.7 |  |  |  | 12.1 | 31 | 
16 | COC(=O)C(Cc1ccccc1)NC(=O)C(CNC(=O)OCc1ccccc1)C(=O)OCc1ccccc1 (stereo not given) |  | > 100 |  | > 100 |  |  |  | > 100 | 52.2 µM and 22.1 µM | > 100 µM and 85.8 µM |  | > 100 |  | > 100 |  | > 100 |  | > 100 | > 100 | 
17 | CC(C)(NO)/C(=N\O)c1ccccc1 |  |  |  | > 10 |  |  |  | > 10 |  |  |  | > 10 |  | > 10 |  | > 10 |  | > 10 |  | 
18 | COC1=C(OC)C(=O)C(Cc2c(Cl)nc3sccn23)=C(C)C1=O |  |  |  | 28.5 |  | 25.1 |  | 20.2 |  | 20.6 µM |  | 38.7 |  | 22.3 |  | 20 |  | 45 | 21.7 | 
19 | CN1C(c2ccccc2)CC(O)CC1c1ccccc1 (stereo not given) |  | > 100 |  |  |  | > 100 |  | > 100 |  | > 100 µM |  | > 100 |  | > 100 |  |  |  | > 100 | > 100 | 
20 | CC(=O)c1c(-c2ccc(Cl)cc2)c(C#N)c(=S)n(C2OC(CO)C(O)C(O)C2O)c1C (stereo not given) |  | > 100 |  | 99.3 |  | > 100 |  | > 100 |  | 57.8 µM |  | 84.5 |  | > 100 |  | > 100 |  |  | > 100 | 
21 | COc1c(OC2OC(CO)C(O)C(O)C2O)cc2c(c1OC)-c1ccc(OC)c(=O)cc1C(NC(C)=O)CC2 (stereo not given) |  | > 84.4 |  |  |  | > 100 |  | > 100 |  | > 100 µM |  | > 100 |  | > 100 |  |  |  | > 100 | > 100 | 
22 | C/C(CCN(C)C)=N/O |  | 33 |  |  |  | 17.4 |  | 2.55 |  | 24 µM |  | 31.5 |  | 25.5 |  |  |  | 24.2 | 54.1 | 
